# Experimental data from publication PMC8822125, “RW-BP100-4D, a Promising Antimicrobial Candidate With Broad-Spectrum Bactericidal Activity” (Frontiers in Microbiology, 2022).
# “And” between values parts separate entries of the source, which are not always exact repeats. Identical values can stand only once. Where a SMILES comes first, the peptide text is derived from it.
# What was measured:
# [1] = system: Staphylococcus aureus ATCC29213; experiment: MIC/MBC, broth microdilution; assay type: cell-based
# [2] = system: Staphylococcus epidermidis ATCC29887; conditions: mean of three repeated experiments
# Experimental: To compare the antibacterial activity of RW-BP100 and its serial derivatives, the MIC against S. aureus ATCC29213 and E. coli ATCC25922 were determined using broth microdilution method according to the guidelines of Clinical and Laboratory Standards Institute (CLSI) M100-S25 ([CLSI, 2015]). Briefly, peptides were dissolved in sterilized water and twofold diluted in Mueller-Hinton (MH) broth (Beijing Land Bridge Technology) at the concentration ranges of 0.098–100 μg/mL. Then the peptides were mixed with an equal volume (100 μL) of bacterial suspensions of 10^6 CFU/mL in a sterilized 96-well microtiter plate. […] To further evaluate the antimicrobial spectrum of RW-BP100-4D, MICs were determined against a more variety of Gram-positive and Gram-negative bacterial species, and the fungal strains (according to CLSI M38 guideline). […] MIC and MBC testing were performed with three independent repeats.
# Escherichia coli O157:H7 = experiment: MIC/MBC, broth microdilution; assay type: cell-based; conditions: mean of three repeated experiments
# [3] = system: Candida albicans ATCC10231; experiment: MIC/MBC, broth microdilution (CLSI M38); assay type: cell-based
# various microorganisms = experiment: MIC/MBC, summary statements over several strains; assay type: cell-based
# C. albicans ATCC10231 = conditions: 1 h, mean of three
# Experimental: To evaluate the thermal and pH stability of RW-BP100-4D, 100 μL of the peptide (100 μg/mL, in PBS buffer) was incubated under different temperatures (40, 50, 60, 70, 80, 90, and 100°C, pH 7) or different pHs (2, 3, 4, 5, 6, 7, 8 and 9, 37°C) for 1 h ([Song et al., 2020]). After incubation, the pH of the peptide solutions was adjusted to 7.0 using NaOH or HCl. For protease and serum stability test, 100 μL of RW-BP100-4D (100 μg/mL) was incubated with proteinase K (1 mg/mL), trypsin (1 mg/mL), papain (1 mg/mL), or sterile calf serum at 37°C for 1 h, respectively ([Song et al., 2020]). After the treatments, the proteases and calf serum were inactivated by heating at 80°C for 30 min. The remnant activity of the treated RW-BP100-4D was evaluated by determining the MICs against E. coli ATCC25922, S. aureus ATCC29213, and C. albicans ATCC10231 using broth microdilution method. RW-BP100-4D without any treatment was used as the control and each test was conducted with three independent repeats. Moreover, degradation rate (%) was estimated as the percentage of degraded peptide calculated from the decrease of the high-performance liquid chromatography (HPLC) peak area of the native peptide. HPLC analysis was performed using the Agilent™ 1100 Series equipped with an Agilent analysis column (ZORBAX RX-C8, 2.1 mm × 150 mm, 5 μm) and an UV detector at 220 nm. Mobile phase was composed of A (H2O) and B (acetonitrile), which contained 0.065% trifluoroacetic (v/v) and 0.05% trifluoroacetic (v/v), respectively.
# [4] = system: Escherichia coli ATCC25922
# sheep red blood cells = sheep red blood cells in PBS, 37°C, 1 h, OD576, relative to melittin, mean ± SD, three repeats;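 note: hemolysis expressed in % from supernatant absorbance, with PBS-treated cells as 0% baseline and melittin as 100%, peptide mixed 1:1 with an 8% v/v erythrocyte suspension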
# MAC-T cells = conditions: peptide 150 μg/mL, 24 h, WST-1, mean ± SD, three repeats
# RAW264.7 cells = conditions: peptide 150 μg/mL, 24 h, WST-1, mean ± SD, three repeats
# [5] = system: Staphylococcus aureus ATCC33591; conditions: Staphylococcus aureus ATCC33591 (mecA); mean of three repeated experiments
# Escherichia coli 47EC = Escherichia coli 47EC (tet(X4)); mean of three repeated experiments
# S. aureus ATCC29213 = conditions: 1 h, mean of three
# [6] = 100 μg/mL in PBS, 1 h
# papain = papain (Carica papaya, UniProt P00784); conditions: 100 μg/mL peptide, papain 1 mg/mL, 37°C, 1 h; decrease of HPLC peak area (C8, UV 220 nm)
# Chain of papain (P00784 134-345): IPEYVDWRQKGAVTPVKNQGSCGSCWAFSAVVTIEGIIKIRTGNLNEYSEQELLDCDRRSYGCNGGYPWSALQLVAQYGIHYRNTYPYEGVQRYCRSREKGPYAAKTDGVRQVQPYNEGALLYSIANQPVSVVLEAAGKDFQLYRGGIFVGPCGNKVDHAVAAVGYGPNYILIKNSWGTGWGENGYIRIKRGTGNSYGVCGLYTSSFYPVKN
# [7] = system: S. aureus ATCC29213 biofilm formation; conditions: peptide 6.25 μg/mL, 24 h, 37°C, crystal violet OD590
# trypsin = experiment: in vitro
# in vitro = conditions: calf serum
# [8] = Table 1, broth microdilution CLSI M100-S25, MH broth, 37°C, 18 h, three independent repeats
# [9] = 100 μg/mL peptide in PBS, pH 7, 40-80 ℃, then broth microdilution
# [10] = 100 μg/mL peptide in PBS, pH 7, 90 ℃
# [11] = 100 μg/mL peptide in PBS, pH 7, 100 ℃
# [12] = 100 μg/mL peptide with papain 1 mg/mL, 37°C, protease inactivated 80°C 30 min
# [13] = 100 μg/mL peptide with sterile calf serum, 37°C, serum inactivated 80°C 30 min
# [14] = 100 μg/mL peptide with trypsin 1 mg/mL, 37°C, protease inactivated 80°C 30 min
# [15] = 100 μg/mL peptide, pH 2-7, 37°C, then adjusted to pH 7.0
# [16] = 100 μg/mL peptide, pH 8-9, 37°C, then adjusted to pH 7.0
smiles,measurement,setting,value
CC[C@H](C)[C@H](NC(=O)[C@H](CCCNC(=N)N)NC(=O)[C@H](CCCNC(=N)N)NC(=O)[C@@H](Cc1ccccc1)NC(=O)[C@H](CC(C)C)NC(=O)[C@H](CCCNC(=N)N)NC(=O)[C@@H](N)CCCNC(=N)N)C(=O)N[C@@H](CC(C)C)C(=O)N[C@@H](CCCNC(=N)N)C(=O)N[C@@H](Cc1c[nH]c2ccccc12)C(=O)N[C@@H](CC(C)C)C(N)=O [RW-BP100-4D] (HELM PEPTIDE1{R.R.L.[dF].R.R.I.L.R.W.L.[am]}$$$$V2.0),MIC Staphylococcus aureus ATCC29213,[1]; [8],3 µg/mL
same,MIC of peptides,"[1]; Table 2, Staphylococcus aureus ATCC29213, mean of three repeated experiments",6 µg/mL and 3 µg/mL
same,MBC of peptides,[2],6 µg/mL
same,MIC of peptides,[2],3 µg/mL
same,MBC of peptides,Escherichia coli O157:H7,6 µg/mL
same,MIC of peptides,Escherichia coli O157:H7,3 µg/mL
same,MIC of peptides,"[3]; CLSI M38, mean of three repeated experiments",12 µg/mL
same,MBC of peptides,[3]; mean of three repeated experiments,25 µg/mL
same,MICs against the selected Gram-negative bacterial isolates,"various microorganisms; E. coli, Salmonella enterica, K. pneumoniae, C. jejuni, A. baumannii, Pseudomonas spp., S. putrefaction, range over strains",3 to 25 µg/mL
same,MIC against S. aureus ATCC29213 and E. coli ATCC25922 (both strains together),various microorganisms; summary of Table 1,3 to 12 µg/mL
same,MIC of RW-BP100-4D against C. albicans ATCC10231 after 40-80 ℃,C. albicans ATCC10231; [9],12 µg/mL
same,MIC of RW-BP100-4D against C. albicans ATCC10231 after 90 ℃,C. albicans ATCC10231; [10],25 µg/mL
same,MIC of RW-BP100-4D against C. albicans ATCC10231 after 100 ℃,C. albicans ATCC10231; [11],50 µg/mL
same,MIC of RW-BP100-4D against C. albicans ATCC10231 after papain,C. albicans ATCC10231; [12],>50 µg/mL
same,MIC of RW-BP100-4D against C. albicans ATCC10231 after calf serum,C. albicans ATCC10231; [13],>50 µg/mL
same,MIC of RW-BP100-4D against C. albicans ATCC10231 after trypsin,C. albicans ATCC10231; [14],>50 µg/mL
same,MIC of RW-BP100-4D against C. albicans ATCC10231 after pH 2-7,C. albicans ATCC10231; [15],12 µg/mL
same,MIC of RW-BP100-4D against C. albicans ATCC10231 after pH 8-9,C. albicans ATCC10231; [16],25 µg/mL
same,MBC of peptides,"[4]; Escherichia coli ACTT25922, mean of three repeated experiments",12 µg/mL
same,MIC Escherichia coli ATCC25922,[4]; [8],6 µg/mL
same,MIC of peptides,"[4]; Table 2, Escherichia coli ACTT25922, mean of three repeated experiments",6 µg/mL
same,"Hemolytic rate, 50 μg/mL",sheep red blood cells; 50 μg/mL peptide,0.11 ± 0.19%
same,"Hemolytic rate, 100 μg/mL",sheep red blood cells; 100 μg/mL peptide,3.69 ± 0.01%
same,"Hemolytic rate, 150 μg/mL",sheep red blood cells; 150 μg/mL peptide,18.75 ± 0.42%
same,"Hemolytic rate, 300 μg/mL",sheep red blood cells; 300 μg/mL peptide,48.55 ± 2.53%
same,"Cell survival rate, MAC-T",MAC-T cells,92.68 ± 3.65%
same,"Cell survival rate, RAW264.7",RAW264.7 cells,78.02 ± 7.66%
same,MBC of peptides,[5],6 µg/mL
same,MIC of peptides,[5],6 µg/mL and 3 µg/mL
same,MBC of peptides,Escherichia coli 47EC,12 µg/mL
same,MIC of peptides,Escherichia coli 47EC,3 µg/mL and 6 µg/mL
same,MIC of RW-BP100-4D against S. aureus ATCC29213 after 40-80 ℃,S. aureus ATCC29213; [9],3 µg/mL
same,MIC of RW-BP100-4D against S. aureus ATCC29213 after 90 ℃,S. aureus ATCC29213; [10],6 µg/mL
same,MIC of RW-BP100-4D against S. aureus ATCC29213 after 100 ℃,S. aureus ATCC29213; [11],25 µg/mL
same,MIC of RW-BP100-4D against S. aureus ATCC29213 after papain,S. aureus ATCC29213; [12],>50 µg/mL
same,MIC of RW-BP100-4D against S. aureus ATCC29213 after calf serum,S. aureus ATCC29213; [13],>50 µg/mL
same,MIC of RW-BP100-4D against S. aureus ATCC29213 after trypsin,S. aureus ATCC29213; [14],>50 µg/mL
same,MIC of RW-BP100-4D against S. aureus ATCC29213 after pH 2-7,S. aureus ATCC29213; [15],3 µg/mL
same,MIC of RW-BP100-4D against S. aureus ATCC29213 after pH 8-9,S. aureus ATCC29213; [16],12 µg/mL
same,"Degradation, 40-80 ℃","[6]; pH 7, 40-80 ℃, decrease of HPLC peak area (C8, UV 220 nm) of native peptide",0%
same,"Degradation, 90 ℃","[6]; pH 7, 90 ℃, decrease of HPLC peak area (C8, UV 220 nm)",56%
same,"Degradation, 100 ℃","[6]; pH 7, 100 ℃, decrease of HPLC peak area (C8, UV 220 nm)",82%
same,"Degradation, papain",papain,>90%
same,Biofilm inhibited compared with the PBS control,[7],82.3%
same,"metabolised at 1 h, 100 μg/mL",trypsin,> 90%
same,"metabolised at 1 h, 100 μg/mL",in vitro,> 90%
